Values after ≈ are worked out from the molar mass of the structure shown. Read-outs that look alike come from different tables or passages of the source.
Tested on: C. glabrata isolates
Assay: Broth microdilution susceptibility (CLSI M27-A3) at different medium pH
Type: cell-based, Candida glabrata
Conditions: Nakaseomyces glabratus, 24 h; for MIC50: read-out: MIC50; for MIC90: read-out: MIC90
Experimental: Ten strains each of C. glabrata and C. albicans vaginal isolates were tested. The strains were obtained from recent clinical trial patients with vulvovaginal candidiasis (VVC) prior to treatment. Candida strains were obtained from the Mycology Reference Library (MRL) at Case Western Reserve University School of Medicine, Ohio, United States.
Susceptibility testing was performed using a broth microdilution method, according to CLSI M27-A3 guidelines (CLSI. 2008. Reference Method for Broth Dilution Antifungal Susceptibility Testing of Yeasts; Approved Standard—Third Edition. Clinical and Laboratory Standards Institute, CLSI document M27-A3). Antifungals and concentrations tested were SCY-078 and micafungin (both at concentrations within the range of 0.015 to 8 μg/ml) and fluconazole (at concentrations within the range of 0.125 to 64 μg/ml). A 0.1-ml C. albicans and C. glabrata inoculum of 0.5-2.5×10^3 blastospores/ml in RPMI 1640 medium was added to each microdilution well. ATCC strains of Candida parapsilosis and Candida krusei QC isolates were also included concurrently to ensure quality control. Antifungal susceptibility testing was carried out for each isolate in RPMI 1640 at pH 7 (to mimic RPMI medium used in testing the susceptibility of yeast by the CLSI M-27A3 document), pH 5.7, and pH 4.5 (to mimic the pH of the vaginal cavity) by adjusting the pH of the media using NaOH or HCl. […] Agents Chemother., 43: 1383-1386 (1999).
[…] SCY-078 powder was manufactured by Avista, Laboratories, NC. Micafungin and fluconazole were sourced from LGM Pharma.

[1] = pH 7, 50% inhibition, pH 7.0, 24 h, 10 vaginal isolates
[2] = pH 7, 100% inhibition, pH 7.0, 24 hours, 10 isolates

MIC (pH 5.72, C. glabrata MRL 32626, pH 5.72, 24 hours, read-out: MIC (50% inhibition)): 0.5 µg/mL (≈ 0.685 µM)
MIC (pH 5.72, C. glabrata MRL 32626, pH 5.72, 24 hours, read-out: MIC (100% inhibition)): 1 µg/mL (≈ 1.37 µM)
MIC (pH 5.72, C. glabrata MRL 32993, pH 5.72, 24 hours, read-out: MIC (50% inhibition)): 0.5 µg/mL (≈ 0.685 µM)
MIC (pH 5.72, C. glabrata MRL 32993, pH 5.72, 24 hours, read-out: MIC (100% inhibition)): 1 µg/mL (≈ 1.37 µM)
MIC (pH 5.72, C. glabrata MRL 33204, pH 5.72, 24 hours, read-out: MIC (50% inhibition)): 0.5 µg/mL (≈ 0.685 µM)
MIC (pH 5.72, C. glabrata MRL 33204, pH 5.72, 24 hours, read-out: MIC (100% inhibition)): 1 µg/mL (≈ 1.37 µM)
MIC (pH 5.72, C. glabrata MRL 33960, pH 5.72, 24 hours, read-out: MIC (50% inhibition)): 0.5 µg/mL (≈ 0.685 µM)
MIC (pH 5.72, C. glabrata MRL 33960, pH 5.72, 24 hours, read-out: MIC (100% inhibition)): 1 µg/mL (≈ 1.37 µM)
MIC (pH 5.72, C. glabrata MRL 33961, pH 5.72, 24 hours, read-out: MIC (50% inhibition)): 0.5 µg/mL (≈ 0.685 µM)
MIC (pH 5.72, C. glabrata MRL 33961, pH 5.72, 24 hours, read-out: MIC (100% inhibition)): 1 µg/mL (≈ 1.37 µM)
MIC (pH 5.72, C. glabrata MRL 34339, pH 5.72, 24 hours, read-out: MIC (50% inhibition)): 0.5 µg/mL (≈ 0.685 µM)
MIC (pH 5.72, C. glabrata MRL 34339, pH 5.72, 24 hours, read-out: MIC (100% inhibition)): 1 µg/mL (≈ 1.37 µM)
MIC (pH 5.72, C. glabrata MRL 34407, pH 5.72, 24 hours, read-out: MIC (50% inhibition)): 0.5 µg/mL (≈ 0.685 µM)
MIC (pH 5.72, C. glabrata MRL 34407, pH 5.72, 24 hours, read-out: MIC (100% inhibition)): 1 µg/mL (≈ 1.37 µM)
MIC (pH 5.72, C. glabrata MRL 34576, pH 5.72, 24 hours, read-out: MIC (50% inhibition)): 0.5 µg/mL (≈ 0.685 µM)
MIC (pH 5.72, C. glabrata MRL 34576, pH 5.72, 24 hours, read-out: MIC (100% inhibition)): 1 µg/mL (≈ 1.37 µM)
MIC50 [1]: 1 µg/mL (≈ 1.37 µM)
MIC90 [1]: 1 µg/mL (≈ 1.37 µM)
MIC50 [2]: 1 µg/mL (≈ 1.37 µM)
MIC90 [2]: 2 µg/mL (≈ 2.74 µM)
MIC (pH 7, C. glabrata MRL 32075, pH 7.0, 24 hours, read-out: MIC (50% inhibition)): 0.5 µg/mL (≈ 0.685 µM)
MIC (pH 7, C. glabrata MRL 32075, pH 7.0, 24 hours, read-out: MIC (100% inhibition)): 1 µg/mL (≈ 1.37 µM)
MIC (pH 7, C. glabrata MRL 32232, pH 7.0, 24 hours, read-out: MIC (50% inhibition)): 1 µg/mL (≈ 1.37 µM)
MIC (pH 7, C. glabrata MRL 32232, pH 7.0, 24 hours, read-out: MIC (100% inhibition)): 1 µg/mL (≈ 1.37 µM)
MIC (pH 7, C. glabrata MRL 32626, pH 7.0, 24 hours, read-out: MIC (50% inhibition)): 0.5 µg/mL (≈ 0.685 µM)
MIC (pH 7, C. glabrata MRL 32626, pH 7.0, 24 hours, read-out: MIC (100% inhibition)): 1 µg/mL (≈ 1.37 µM)
MIC (pH 7, C. glabrata MRL 32993, pH 7.0, 24 hours, read-out: MIC (50% inhibition)): 0.5 µg/mL (≈ 0.685 µM)
MIC (pH 7, C. glabrata MRL 32993, pH 7.0, 24 hours, read-out: MIC (100% inhibition)): 1 µg/mL (≈ 1.37 µM)
MIC (pH 7, C. glabrata MRL 33204, pH 7.0, 24 hours, read-out: MIC (50% inhibition)): 1 µg/mL (≈ 1.37 µM)
MIC (pH 7, C. glabrata MRL 33204, pH 7.0, 24 hours, read-out: MIC (100% inhibition)): 1 µg/mL (≈ 1.37 µM)
MIC (pH 7, C. glabrata MRL 33960, pH 7.0, 24 hours, read-out: MIC (50% inhibition)): 0.5 µg/mL (≈ 0.685 µM)
MIC (pH 7, C. glabrata MRL 33960, pH 7.0, 24 hours, read-out: MIC (100% inhibition)): 1 µg/mL (≈ 1.37 µM)
MIC (pH 7, C. glabrata MRL 33961, pH 7.0, 24 hours, read-out: MIC (50% inhibition)): 1 µg/mL (≈ 1.37 µM)
MIC (pH 7, C. glabrata MRL 33961, pH 7.0, 24 hours, read-out: MIC (100% inhibition)): 1 µg/mL (≈ 1.37 µM)
MIC (pH 7, C. glabrata MRL 34339, pH 7.0, 24 hours, read-out: MIC (50% inhibition)): 1 µg/mL (≈ 1.37 µM)
MIC (pH 7, C. glabrata MRL 34339, pH 7.0, 24 hours, read-out: MIC (100% inhibition)): 1 µg/mL (≈ 1.37 µM)
MIC (pH 7, C. glabrata MRL 34407, pH 7.0, 24 hours, read-out: MIC (50% inhibition)): 1 µg/mL (≈ 1.37 µM)
MIC (pH 7, C. glabrata MRL 34407, pH 7.0, 24 hours, read-out: MIC (100% inhibition)): 2 µg/mL (≈ 2.74 µM)
MIC (pH 7, C. glabrata MRL 34576, pH 7.0, 24 hours, read-out: MIC (50% inhibition)): 1 µg/mL (≈ 1.37 µM)
MIC (pH 7, C. glabrata MRL 34576, pH 7.0, 24 hours, read-out: MIC (100% inhibition)): 2 µg/mL (≈ 2.74 µM)
Structure (SMILES): CC(C)[C@@H](C)[C@@]1(C)CC[C@]2(C)[C@H]3CC[C@@H]4[C@@]5(COC[C@]4(C)[C@@H](OC[C@](C)(N)C(C)(C)C)[C@H](n4ncnc4-c4ccncc4)C5)C3=CC[C@@]2(C)[C@@H]1C(=O)O [SCY-078]

Reference: US20260000656A1, “ANTIFUNGAL AGENTS WITH ENHANCED ACTIVITY IN ACIDIC PH” (Scynexis, Inc., priority 2017, published 2026)
